Source: US20210230179A1, “THIENO[2,3-B]PYRIDINE DERIVATIVES AS EPAC INHIBITORS AND THEIR PHARMACEUTICAL USES” (INSTITUT NATIONAL DE LA SANTE ET DE LA RECHERCHE MEDICALE …, priority 2018, published 2021)
Like-named read-outs stand apart in the source and are kept apart here.

What was measured:
Epac1 = target: T1, Epac1 (Homo sapiens, UniProt O95398); assay: biochemical; settings: for IC50: read-out: IC50, Epac1 GEF activity
T1 sequence (O95398 191-923 limits assumed): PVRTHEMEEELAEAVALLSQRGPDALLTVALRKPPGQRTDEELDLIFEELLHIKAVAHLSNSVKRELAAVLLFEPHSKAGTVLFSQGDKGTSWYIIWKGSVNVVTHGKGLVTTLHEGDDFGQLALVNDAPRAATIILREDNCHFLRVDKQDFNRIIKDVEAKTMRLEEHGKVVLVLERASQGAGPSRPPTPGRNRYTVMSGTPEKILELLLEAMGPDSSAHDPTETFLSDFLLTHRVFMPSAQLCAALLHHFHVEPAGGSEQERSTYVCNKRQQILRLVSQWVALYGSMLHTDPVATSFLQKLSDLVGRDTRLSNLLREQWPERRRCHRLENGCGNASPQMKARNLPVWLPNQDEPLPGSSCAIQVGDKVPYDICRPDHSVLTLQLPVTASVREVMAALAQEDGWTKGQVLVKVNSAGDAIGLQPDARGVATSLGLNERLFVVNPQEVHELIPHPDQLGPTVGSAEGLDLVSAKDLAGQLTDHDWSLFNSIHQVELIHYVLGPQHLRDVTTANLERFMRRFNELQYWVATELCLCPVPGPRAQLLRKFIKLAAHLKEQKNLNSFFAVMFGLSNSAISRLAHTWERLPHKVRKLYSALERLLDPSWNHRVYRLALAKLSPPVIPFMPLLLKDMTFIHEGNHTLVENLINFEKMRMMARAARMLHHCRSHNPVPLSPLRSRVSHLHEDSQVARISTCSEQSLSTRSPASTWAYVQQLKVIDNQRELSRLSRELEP
Text: FIGS. 4-8. […] Variations of relative fluorescence units (RFU) were studied as a function of time and fitted to single exponentials.

[1] = tested on: neonatal rat ventricular myocytes; assay: cytotoxicity in cultured cells; format: cell-based; settings: various types of cultured cells including neonatal rat ventricular myocytes
Text: Neonatal rat ventricular myocytes (NRVM) isolation: Neonatal rats of 1-2 days old were euthanized by decapitation. The heart was excised and the atria were removed.

Epac2B = target: T2, Epac2B (Homo sapiens, UniProt Q8WZA2); assay: Rap1-GTP in HEK293 cells transfected with Epac2B; format: cell-based; settings: 20 μM, 30 min preincubation; S-220 50 μM, 10 min
T2 construct: expressed in transfected cells; host or cells: HEK293
T2 sequence (Q8WZA2 1-867 isoform Q8WZA2-3): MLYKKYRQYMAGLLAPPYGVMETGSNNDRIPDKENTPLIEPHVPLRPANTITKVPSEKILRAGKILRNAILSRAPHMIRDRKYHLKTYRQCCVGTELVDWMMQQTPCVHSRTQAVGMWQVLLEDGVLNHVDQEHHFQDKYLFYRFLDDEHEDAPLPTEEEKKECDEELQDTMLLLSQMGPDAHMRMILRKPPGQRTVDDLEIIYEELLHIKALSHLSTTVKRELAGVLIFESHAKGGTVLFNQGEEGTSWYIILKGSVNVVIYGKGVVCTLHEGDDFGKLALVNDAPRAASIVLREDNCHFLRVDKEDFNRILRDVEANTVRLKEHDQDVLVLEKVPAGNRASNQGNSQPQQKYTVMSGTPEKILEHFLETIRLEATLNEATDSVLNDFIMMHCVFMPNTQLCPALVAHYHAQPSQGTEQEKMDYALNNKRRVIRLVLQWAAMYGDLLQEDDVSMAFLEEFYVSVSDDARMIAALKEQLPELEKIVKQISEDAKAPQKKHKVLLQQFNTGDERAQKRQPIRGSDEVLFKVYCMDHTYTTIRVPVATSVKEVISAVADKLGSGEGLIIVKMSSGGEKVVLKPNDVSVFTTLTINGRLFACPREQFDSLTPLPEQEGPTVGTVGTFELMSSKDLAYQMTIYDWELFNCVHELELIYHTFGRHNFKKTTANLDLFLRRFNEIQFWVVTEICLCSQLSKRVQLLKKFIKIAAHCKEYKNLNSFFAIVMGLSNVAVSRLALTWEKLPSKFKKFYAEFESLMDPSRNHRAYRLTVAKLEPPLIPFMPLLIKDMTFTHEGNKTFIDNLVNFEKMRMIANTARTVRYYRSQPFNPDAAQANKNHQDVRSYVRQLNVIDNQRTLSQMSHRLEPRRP
Experimental: FIGS. 9-13. Amounts of Rap1-GTP (n=5 in each group, mean±S.E.M) were determined in HEK293 cells transfected with Epac1 (FIGS. 9-11), Epac2A (FIG. 12) or Epac2B (FIG. 13). Cells were preincubated or not with AM-001 (FIGS. 9, 12, and 13), AM-002 (FIG. 10) or AM-003 (FIG. 11) (20 μM, 30 min) and were then treated or not with 8-CPT-AM (10 μM for Epac1 activation and 20 μM for Epac2A activation) or S-220 (50 μM for Epac2B activation) for 10 min. ESI-05 was used as positive control of Epac2A inhibition. Representative immunoblots are shown. […], *[…], ***p<0.001, ****p<0.0001, versus indicated values, one way ANOVA, Bonferroni comparison test.
Human Embryonic Kidney cells line (HEK293): HEK293 cells were maintained is in minimal essential medium with FBS (10%) and penicillin-streptomycin (1%). All media, sera, and antibiotics used in cell culture were purchased from Invitrogen.
The human Epac1/Epac2 expression vector was a gift from Dr J. L. Bos. Cells were transfected using Lipofectamine 2000 (Invitrogen) according to the manufacturer's instructions. HEK293 cells were maintained in MEM with FBS (Foetal Bovine Serum; 10%) and penicillin-streptomycin (1%). All media, sera and antibiotics used in cell culture were purchased from Invitrogen (Cergy Pontoise, France). […]

Nc1c(C(=O)Nc2ccc(F)cc2)sc2nc(-c3cccs3)cc(-c3ccccc3)c12 [AM-001, 3-amino-N-(4-fluorophenyl)-4-phenyl-6-(thiophen-2-yl)thieno[2,3-b]pyridine-2-carboxamide]
effect on Epac1 GEF (exchange) activity (Epac1; 30 μM Sp-8-CPT, 20 μM inhibitor): prevented Epac1 GEF activity
IC50 (Epac1; Sp-8-CPT at its EC50 for the isoform): 47.8 ± 1.1 µM
IC50 (Epac1; saturating concentration of Sp-8-CPT): 48.5 ± 1 µM
cytotoxicity [1]: no apparent cytotoxicity
inhibition of the increase in Rap1-GTP induced by S-220 (Epac2B): ineffective
